The values below come from patent US20210220328A1, “PYRROLE DERIVATIVES AS ACC INHIBITORS” (Almirall, S.A., priority 2017, published 2021).

In one test the test system is sebocytes. The settings on record: Hunt D. et al. J Invest Dermatol. 2017; cited from earlier work.
For another test, the system named is sebaceous gland activity. To be noted: Hunt D. et al. J Invest Dermatol. 2017; cited from earlier work.
In test [1] the test system is immortalized human sebocyte cell line, SZ95. Kind of test: In vitro assay of inhibition of lipid synthesis. To be noted: 48 h, SZ95 sebocytes. In kind it is cell-based. A digest of the protocol: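 Human SZ95 sebocytes were preincubated with compound for 30 min, then stimulated with 75 μM arachidonic acid for 48 h at 37 °C. Neutral lipids were stained with AdipoRed and read by fluorescence (ex 485/em 535). % inhibition was normalized between AA-stimulated and unstimulated cells.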

Setting [2] is: lipid synthesis induced by 75 μM arachidonic acid, AdipoRed fluorescence, Table 1.
Setting [3] is: 75 μM arachidonic acid, AdipoRed, Table 2, finer classes for compounds with IC50 less than 250 nM.

With `CCCCCCCCCCCCCCOc1ccc(C(=O)OCC(=O)N(C)CC(=O)OCC)o1` [Olumacostat Glasaretil], the “potency inhibiting sebum production by sebocytes” value with sebocytes is on record as “low potency”. Besides, the “activity in an in vivo model of sebaceous gland activity” value with sebaceous gland activity was “poor activity”.
For `CCCCCCCCCCCCCc1c[nH]c(C(=O)OCC)c1F` [Example 20, Ethyl 3-fluoro-4-tridecyl-1H-pyrrole-2-carboxylate], the IC50 in test [1] (setting [2]) is 1000 to 5000 nM.
As to `CCCCCCCCCCCCCCCCCc1c[nH]c(C(=O)O)c1F` [Example 54, 3-Fluoro-4-heptadecyl-1H-pyrrole-2-carboxylic acid], the IC50 in test [1] (setting [3]) is under 50 nM; in test [1] (setting [2]), under 250 nM.
`CCCCCCCCCCCCSc1c[nH]c(C(=O)O)c1F` [Example 76, 4-(Dodecylthio)-3-fluoro-1H-pyrrole-2-carboxylic acid] registered an IC50 in test [1] (setting [2]) of 1000 to 5000 nM.
Consider `CCCCCCCCCCCCCc1c[nH]c(C(=O)OC(C)C)c1F` [Example 23, Isopropyl 3-fluoro-4-tridecyl-1H-pyrrole-2-carboxylate], for which, in test [1] (setting [2]), the 50% inhibitory concentration (IC50) was over 5000 nM.
For `CCCCCCCCCCCCCc1c[nH]c(C(=O)OC(C)OC(=O)OC(C)(C)C)c1F` (stereo not drawn) [Example 45, 1-((Tert-butoxycarbonyl)oxy)ethyl 3-fluoro-4-tridecyl-1H-pyrrole-2-carboxylate], the IC50 in test [1] (setting [3]) was 50 to 100 nM; in test [1] (setting [2]) it was under 250 nM.
Consider `CCCCCCCCCC(F)(F)CCc1cc(Cl)c(C(=O)O)[nH]1` [Example 128, 3-Chloro-5-(3,3-difluorododecyl)-1H-pyrrole-2-carboxylic acid], for which the IC50 in test [1] (setting [3]) was under 50 nM; in test [1] (setting [2]) it was 250 to 1000 nM.
In test [1] (setting [2]), `CCCCCCCCCCCCc1c[nH]c(C(=O)OCCCCCCCCCO)c1Cl` [Example 59, 9-Hydroxynonyl 3-chloro-4-dodecyl-1H-pyrrole-2-carboxylate] displayed an IC50 of 250 to 1000 nM.
Still for that read-out and setting: the figure for `CCCCCCCCCCCCCCCCCCCc1cc(F)c(C(=O)O)[nH]1` [Example 126, 3-Fluoro-5-nonadecyl-1H-pyrrole-2-carboxylic acid] is under 250 nM.
`CCCCCCCCCCCCCc1c[nH]c(C(=O)OC(C)OC(=O)OCCCO)c1F` (stereo not drawn) [Example 50, 1-(((3-Hydroxypropoxy)carbonyl)oxy)ethyl 3-fluoro-4-tridecyl-1H-pyrrole-2-carboxylate]: the figures for the IC50 in test [1] (setting [3]) and in test [1] (setting [2]) were under 50 nM and under 250 nM, respectively.
In test [1] (setting [2]), `CCCCCCCCCCCCCCCCc1c[nH]c(C(=O)O)c1Cl` [Example 63, 3-Chloro-4-hexadecyl-1H-pyrrole-2-carboxylic acid] had an IC50 of 250 to 1000 nM.
As for `CCCCCCCCCCCCCc1c[nH]c(C(=O)OC(C)OC(=O)OC2CCCCC2)c1F` (stereo not drawn) [Example 47, 1-(((Cyclohexyloxy)carbonyl)oxy)ethyl 3-fluoro-4-tridecyl-1H-pyrrole-2-carboxylate], the values for the IC50 in test [1] (setting [3]) and in test [1] (setting [2]) were 50 to 100 nM and under 250 nM, respectively.
On to `CCCCCCCCCCCOc1c[nH]c(C(=O)OC(C)OC(=O)OCCOC)c1F` (stereo not drawn) [Example 106, 1-(((2-Methoxyethoxy)carbonyl)oxy)ethyl 3-fluoro-4-(undecyloxy)-1H-pyrrole-2-carboxylate], for which the IC50 was under 50 nM in test [1] (setting [3]) and under 250 nM in test [1] (setting [2]).
`CCCCCCCCCCCCCc1c[nH]c(C(=O)OCCCCO)c1F` [Example 34, 4-Hydroxybutyl 3-fluoro-4-tridecyl-1H-pyrrole-2-carboxylate]: the IC50 was 100 to 250 nM in test [1] (setting [3]) and under 250 nM in test [1] (setting [2]).
For the compound `CCCCCCCCCC(C)(C)CCc1c[nH]c(C(=O)O)c1F` [Example 95, 4-(3,3-Dimethyldodecyl)-3-fluoro-1H-pyrrole-2-carboxylic acid], the 50% inhibitory concentration (IC50) is under 50 nM in test [1] (setting [3]) and under 250 nM in test [1] (setting [2]).
In the case of `CCCCCCCCCCCCc1cc(Cl)c(C(=O)O)[nH]1` [Example 65, 3-Chloro-5-dodecyl-1H-pyrrole-2-carboxylic acid], the IC50 in test [1] (setting [3]) is 50 to 100 nM; in test [1] (setting [2]), under 250 nM.
Turning to `CCCCCCCCCCCCCc1cn(C(C)C)c(C(=O)O)c1F` [Example 70, 3-Fluoro-1-isopropyl-4-tridecyl-1H-pyrrole-2-carboxylic acid], in test [1] (setting [2]), the IC50 is 1000 to 5000 nM.
Compound `CCOCCCCCCCCCOc1c[nH]c(C(=O)O)c1Cl` [Example 100, 3-Chloro-4-((9-ethoxynonyl)oxy)-1H-pyrrole-2-carboxylic acid] displayed an IC50 in test [1] (setting [2]) of 250 to 1000 nM.
Regarding `CCCCCCCCCCCCCc1c[nH]c(C(=O)OCCCCCCO)c1F` [Example 36, 6-Hydroxyhexyl 3-fluoro-4-tridecyl-1H-pyrrole-2-carboxylate], the IC50 in test [1] (setting [3]) was 100 to 250 nM; in test [1] (setting [2]) it was under 250 nM.
With `CCCCCCCCCCCCCCOc1c[nH]c(C(=O)O)c1F` [Example 75, 3-Fluoro-4-(tetradecyloxy)-1H-pyrrole-2-carboxylic acid], the IC50 in test [1] (setting [3]) was under 50 nM; in test [1] (setting [2]) it was under 250 nM.
On to `CCCCCCCCCCCCCc1c[nH]c(C(=O)OCCN2C(=O)CCC2=O)c1F` [Example 28, 2-(2,5-Dioxopyrrolidin-1-yl)ethyl 3-fluoro-4-tridecyl-1H-pyrrole-2-carboxylate], for which the IC50 in test [1] (setting [3]) was 50 to 100 nM; in test [1] (setting [2]), under 250 nM.
For `CCCCCCCCCCCCCCc1cc(F)c(C(=O)O)[nH]1` [Example 121, 3-Fluoro-5-tetradecyl-1H-pyrrole-2-carboxylic acid], in that order: under 50 nM and under 250 nM.

Usually IC50 stands for the concentration at which inhibition is half-maximal. Higher therefore signals lower potency.
